{
  "source": "patent US9962341B2",
  "about": "“Active pharmaceutical ingredient (API) comprising cannabinoids for use in the treatment of cancer” (GW Pharma Limited, priority 2014, dated 2018)",
  "format_in_all_cases": "cell-based",
  "key": {"A375": {"tested_on": "A375", "test": "Cell viability (CellTiter-Blue, 72 h), A375 melanoma cells", "details": "A375, 1% FBS, 72 h; read-out: Cell line IC50 value", "experimental": "(§1) The following cell lines were tested in this example: Lung Cancer (A549, NCI-H460); Pancreatic cancer (PANC1, Mia-Pa-Ca-2); Melanoma (WM115, A375); Ovarian cancer (OVCAR3, SKOV3); Gastric cancer (MKN45, HGC-27); Renal cancer (ACHN) and Bladder Cancer (RT112).\n(§2) Each tumour cell line was maintained in vitro in RPMI 1640+10% heat inactivated FBS and 2 mM L-glutamine (growth media) at 37° C. in 5% CO2 and humidified conditions. The cells were harvested, washed, re-suspended into growth medium and counted. The cells were re-suspended into assay media (RPMI 1640+5% heat inactivated FBS+ and 2 mM L-glutamine) at 4×10^4 cells/ml (dependent upon cell type) and plated into the middle 240 wells of 384 well tissue culture plates (Corning CellBind, black-wall plates) 25 μl/well aliquots; 50 μl of growth media was aliquoted into the outer wells. There were 3 plates for each cell line.\n(§3) The plates were incubated overnight at 37° C., in 5% humidified CO2.\n(§4) The phytocannabinoid test compounds were prepared in 100% DMSO vehicle at a stock concentration of 20 and 40 mM.\n(§5) Starting with the 20 mM stock in DMSO, this was serially diluted (2 fold) in DMSO in a 96-well plate, to 20 (no dilution), 10, 5, 2.5, 1.25, 0.625, 0.315, 0.157 and […]. Following this, 10 ul of each compound dilution was diluted into 990 ul of 1% (v/v) FBS media in a deep well block making the final concentrations of 200, 100, 50, 25, 12.5, 6.25, 3.125, 1.56 and 0.79 μM (2× final assay concentrations and 1% DMSO).\n(§6) An equal volume of each cannabinoid in the combination (stock concentration 40 mM) was mixed together to make a stock of 20 mM of each cannabinoid in DMSO. This was serially diluted (2 fold) in DMSO in a 96-well plate, to 20 (no dilution), 10, 5, 2.5, 1.25, 0.625, 0.315, 0.157 and […]. Following this, 10 ul of each combination dilution was diluted into 990 ul of 1% (v/v) FBS media in a deep well block making the final concentrations of 200, 100, 50, 25, 12.5, 6.25, 3.125, 1.56 and 0.79 μM (2× final assay concentrations and 1% DMSO).\n(§7) Cisplatin (stock of 1 mg/ml=3.33 mM in water) was diluted in 1% FBS media to give a stock concentration of 1 mM. This was then diluted in 1% FBS media from the stock solution to 200 μM, then serially diluted (3-fold) in 1% FBS media to 200 (no dilution), 66.66, 22.22, 7.41, 2.47, 0.82, 0.27, 0.09, 0.03 μM (2× final assay concentrations; no DMSO).\n(§8) The plates were incubated for 72 h at 37° C. in 5% humidified CO2. To develop the plates, at 72 h, 10 μl of CellTiter-Blue™ reagent was added to each test/blank well.\n(§9) The plates were incubated at 37° C., 5% humidified CO2. Fluorescence was measured using a Flex II Station plate reader (570 nm excitation wavelength, 600 nm emission wavelength, 590 nm cut-off) after 3 h.\n(§10) The phytocannabinoid compounds CBD, CBGA, CBG, CBDA, THCV and THC were tested on a panel of lung (A549, NCI-H460), pancreatic (PANC1, Mia-Pa-Ca-2), melanoma (WM115, A375), ovarian (OVCAR3, SKOV3), gastric (MKN45, HGC-27), renal (ACHN) and bladder (RT112) cancer cell lines according to the protocol for 72 h in media containing 1% FBS.\n(§11) The IC50 values for each phytocannabinoid and combination of CBD with the other phytocannabinoids was calculated for each cell line. The raw data values expressed in relative fluorescent units were normalised to the vehicle for each individual plate and any reduction in fluorescence indicated a decrease in viability.\n(§12) This calculation was as described in Example 1 above."}, "HGC-27": {"tested_on": "HGC-27", "test": "Cell viability (CellTiter-Blue, 72 h), HGC-27 gastric cancer cells", "details": "HGC-27, 1% FBS, 72 h; read-out: Cell line IC50 value", "experimental": "as §1, §2, §3, §4, §5, §6, §7, §8, §9, §10, §11, §12"}, "MKN45": {"tested_on": "MKN45", "test": "Cell viability (CellTiter-Blue, 72 h), MKN45 gastric cancer cells", "details": "MKN45, 1% FBS, 72 h; read-out: Cell line IC50 value", "experimental": "as §1, §2, §3, §4, §5, §6, §7, §8, §9, §10, §11, §12"}, "OVCAR3": {"tested_on": "OVCAR3", "test": "Cell viability (CellTiter-Blue, 72 h), OVCAR3 ovarian cancer cells", "details": "OVCAR3, 1% FBS, 72 h; read-out: Cell line IC50 value", "experimental": "as §1, §2, §3, §4, §5, §6, §7, §8, §9, §10, §11, §12"}, "WM115": {"tested_on": "WM115", "test": "Cell viability (CellTiter-Blue, 72 h), WM115 melanoma cells", "details": "WM115, 1% FBS, 72 h; read-out: Cell line IC50 value", "experimental": "as §1, §2, §3, §4, §5, §6, §7, §8, §9, §10, §11, §12"}, "SKOV3": {"tested_on": "SKOV3", "test": "Cell viability (CellTiter-Blue, 72 h), SKOV3 ovarian cancer cells", "details": "SKOV3, 1% FBS, 72 h; read-out: Cell line IC50 value", "experimental": "as §1, §2, §3, §4, §5, §6, §7, §8, §9, §10, §11, §12"}, "RT112": {"tested_on": "RT112", "test": "Cell viability (CellTiter-Blue, 72 h), RT112 bladder cancer cells", "details": "RT112, 1% FBS, 72 h; read-out: Cell line IC50 value", "experimental": "as §1, §2, §3, §4, §5, §6, §7, §8, §9, §10, §11, §12"}, "PANC-1": {"tested_on": "PANC-1", "test": "Cell viability (CellTiter-Blue, 72 h), PANC-1 pancreatic cancer cells", "details": "Homo sapiens; PANC-1, 1% FBS, 72 h; read-out: Cell line IC50 value", "experimental": "as §1, §2, §3, §4, §5, §6\n(§13) Gemcitabine SOC was prepared in 100% DMSO to give a stock concentration of 20 mM. This was then serially diluted (3 fold) in DMSO in a 96-well plate, to 20 (no dilution), 6.6, 2.2, 0.741, 0.247, 0.082, 0.027, 0.009 and 0.003 mM. Following this, 10 ul of each dilution was further diluted into 990 ul of 1% (v/v) FBS media making the final concentrations of 200 (no dilution), 66.66, 22.22, 7.41, 2.47, 0.82, 0.27, 0.09, 0.03 μM (2× final assay concentrations and 1% DMSO).\nas §8, §9, §10, §11, §12"}, "Mia-Pa-Ca-2": {"tested_on": "Mia-Pa-Ca-2", "test": "Cell viability (CellTiter-Blue, 72 h), Mia-Pa-Ca-2 pancreatic cancer cells", "details": "Homo sapiens, MIA PaCa-2, 72 h, read-out: Cell line IC50 value", "experimental": "as §1, §2, §3, §4, §5, §6, §13, §8, §9, §10, §11, §12"}},
  "data": [
    {"smiles": "N.N.[Cl][Pt][Cl]", "note": "[Cisplatin, reference compound]", "values": [
      {"measurement": "IC50", "setting": "A375", "result": 6.3, "unit": "µM"},
      {"measurement": "IC50", "setting": "HGC-27", "result": 47, "unit": "µM"},
      {"measurement": "IC50", "setting": "MKN45", "result": 9.7, "unit": "µM"},
      {"measurement": "IC50", "setting": "OVCAR3", "result": 7.7, "unit": "µM"},
      {"measurement": "IC50", "setting": "WM115", "result": 35, "unit": "µM"},
      {"measurement": "IC50", "setting": "SKOV3", "result": 4.5, "unit": "µM"},
      {"measurement": "IC50", "setting": "RT112", "result": 27, "unit": "µM"}
    ]},
    {"smiles": "Nc1ccn([C@@H]2O[C@H](CO)[C@@H](O)C2(F)F)c(=O)n1", "note": "[Gemcitabine, reference compound]", "values": [
      {"measurement": "IC50", "setting": "PANC-1", "result": "> 100", "unit": "µM"},
      {"measurement": "IC50", "setting": "Mia-Pa-Ca-2", "result": "> 100", "unit": "µM"}
    ]}
  ]
}
